From US20120022121A1, “INDOLES, DERIVATIVES AND ANALOGS THEREOF AND USES THEREFOR” (priority 2007, published 2012)
Entries after “also recorded” stand apart in the source; their conditions may differ.

Experiments:
LNCaP [1] = assay: Growth inhibition assay (SRB, 96 h); assay type: cell-based; conditions: Homo sapiens
Text: (§1) MTT (3-(4,5-dimethylthiazol-2-yl)-2,5-diphenyltetrazolium bromide) assay was also used for the leukemia cell lines. […] Cells were stained with SRB solution or MTT solution.

PPC-1 [2] = assay: Growth inhibition assay (SRB, 96 h); assay type: cell-based; conditions: Homo sapiens, PPC-1, 96 h
Text: as §1

DU-145 [3] = assay: Growth inhibition assay (SRB, 96 h); assay type: cell-based; conditions: Homo sapiens, DU-145, 96 h
Text: as §1

[4] = system: human cancer cell lines from prostate, colon, breast, and bladder; assay: Cell proliferation by SRB assay, panel of cell lines; assay type: cell-based; conditions: read-out: IC50 values, range over cell lines
Method: as §1
Cell proliferation was measured by SRB assay.

Bcl-2 = assay: Western blot of Bcl-2 phosphorylation; assay type: cell-based, human; conditions: PC-3 cells, 24 h, immunoblot of pBcl-2
Method: Treated cells were lysed in cold lysis buffer (20 mM Tris-HCl, pH 7.5, 150 mM NaCl, 1 mM Na2 EDTA, 1% Triton x-100, and freshly added Na3VO4 (2 mM), NaF (20 mM) and complete protease inhibitor cocktail). For each sample, an aliquot (20 to 40 μg) of total protein was loaded and run on a SDS-Page gel. Protein was transferred to nitrocellulose membranes (Bio-Rad Laboratories, Hercules, Calif.), blocked with 5% non-fat milk, incubated with primary antibody overnight at 4° C., and then incubated with secondary antibody at rt for 1 h. ECL™ (GE Healthcare Bio-Sciences Corp., Piscataway, N.J.) was used for detection. The band intensity was measured by densitometry using TotalLab TL100 Software v2006 (Nonlinear Dynamics Ltd., Newcastle upon Tyne, UK).

PC-3 [5] = assay: Growth inhibition assay (SRB, 96 h); assay type: cell-based, human; conditions: PC-3, 96 h
Text: as §1

Rotarod performance = assay type: in vivo, ICR mice
Method: The training and rotarod test was conducted as described previously. Briefly, during the training phase for 2 consecutive days (3 trials/day), mice (10 mice/group) were trained to run in a rotarod apparatus without falling at a constant speed (12 rpm) for a maximum of 2 min. For the rotarod performance test, duration of each trial was less than 5 min. […] Tests were performed for 2 weeks (2 days/week). The animals were tested in three trials per day with an intertrial interval of 30 min. Animal performance was recorded as the average elapsed time for the mice to fall off.

K562/Dox = assay: Growth inhibition assay (MTT, 96 h); assay type: cell-based, human; conditions: for IC50: Homo sapiens, K562/Dox, P-gp over-expressed, 96 h; for resistance factor (ratio of IC50 resistant subline to parental cell line): K562/Dox vs K562 (P-gp)
Text: as §1

MES-SA/DX5 = assay: Growth inhibition assay (96 h); assay type: cell-based, human; conditions: for resistance factor (ratio of IC50 resistant subline to parental cell line): MES-SA/DX5 vs MES-SA (P-gp)
Text: as §1

HEK293-pcDNA3.1 = assay: Growth inhibition assay (96 h); assay type: cell-based, human; conditions: Homo sapiens, HEK293-pcDNA3.1 (control for MRP)
Text: as §1

PC-3 cells = assay: DNA fragmentation by cell death detection ELISA (anti-histone); assay type: cell-based; conditions: Homo sapiens, 24 h, read-out: EC50 of increase of enrichment factor (DNA fragmentation)
Method: Apoptosis was measured by quantitation of cytoplasmic histone-associated DNA fragments using the cell death detection ELISA kit. Cells were seeded in 6-well plates and exposed to 68 for 24 h at different concentrations. The quantitation of DNA fragments was performed according to the manufacturer's instructions. Results are expressed as the enrichment factor (i.e., the ratio of the optical density in treated cells to the optical density in control cells).

LNCaP [6] = assay: Cell viability SRB assay, 96 h; assay type: cell-based; conditions: Homo sapiens
Method: (§2) Cell viability (LNCaP, PC-3 prostate, DU145, PPC-1, and TSU-Pr1 prostate cancer cell lines, HT-29 colon cancer cell line, and MCF-7 breast cancer cell line) was quantitated using the sulforhodamine B (SRB) assay after 96 h coincubation with different concentrations of compound in 96-well plates. Cell viability of leukemia cells (K562 and doxorubicin-resistant K562/Dox) was quantitated by MTT assay after 96 h coincubation with different concentrations of compound in 96-well plates. Drug-induced apoptosis was determined by anti-histone ELISA assay and DNA laddering. Cell cycle progression was assessed by propidium iodide staining and fluorescence-activated cell sorting (FACS) analysis. In vitro tubulin polymerization assay was determined by CytoDYNAMIX ScreenTM3 (CDS-03) kits according to the manufacturer's instructions. Anti-apoptosis protein (Bcl-2 and Bcl-xl) and pro-apoptosis protein (Bax) were examined in LNCaP and PC-3 after 24 h incubation with different concentrations of compound 13 by Western blot assay. In vivo PC-3 xenograft studies were conducted by i.v. dosing of 50 mg/kg, 100 mg/kg and 150 mg/kg for 2 weeks.
(§3) Cells were plated in 96-well plates at a density of 800-5,000 cells/well, depending on the cell line, in their required growth media containing 10% fetal bovine serum. Preliminary studies were performed with each cell line using a variety of cell densities and incubation times to determine appropriate seeding densities. The compound of interest was dissolved in DMSO, diluted in cell culture medium (final DMSO concentration was less than 0.5% v/v), and added to quadruplicate wells at final concentrations ranging from 0 to 100 μM. Control wells to which only drug-free vehicle was added were included as negative controls.
(§4) Cells were incubated for 96 hour at 37° C. in a humidified atmosphere containing 5% carbon dioxide.
(§5) Cells were stained with SRB solution. […] WinNonlin was provided by a Pharsight Academic License to The Ohio State University.

PPC-1 [7] = assay: Cell viability SRB assay, 96 h; assay type: cell-based; conditions: Homo sapiens, PPC-1, 96 h
Method: as §2, §3, §4, §5

PC-3 [8] = assay: Cell viability SRB assay, 96 h; assay type: cell-based; conditions: Homo sapiens, PC-3, 96 h
Method: as §2, §3, §4, §5

DU-145 [9] = assay: Cell viability SRB assay, 96 h; assay type: cell-based; conditions: Homo sapiens, DU-145, 96 h
Method: as §2, §3, §4, §5

TSU = assay: Cell viability SRB assay, 96 h; assay type: cell-based; conditions: Homo sapiens, TSU (TSU-Pr1)
Method: as §2, §3, §4, §5

LNCaP and PC-3 cells = assay: DNA fragmentation by agarose gel electrophoresis; assay type: cell-based, human
Method: LNCaP and PC-3 cells were treated with different concentrations of drugs for different periods of time. At the end of the incubation, both floating and adherent cells were collected. […] DNA was visualized by ethidium bromide staining and UV transillumination.

Compound | IC50 [4] [nM] | concentration that induced phosphorylation (Ser70) of Bcl-2 (Bcl-2) [nM] | IC50 (PC-3 [5]; Homo sapiens) [nM] | IC50 (K562/Dox) [nM] | resistance factor (ratio of IC50 resistant subline to parental cell line) (K562/Dox) | resistance factor (ratio of IC50 resistant subline to parental cell line) (MES-SA/DX5) | IC50 (HEK293-pcDNA3.1) [nM] | EC50 (PC-3 cells) [nM] | IC50 (LNCaP [6]) [nM] | IC50 (PPC-1 [7]) [nM] | IC50 (PC-3 [8]) [nM] | IC50 (DU-145 [9]) [nM] | IC50 (TSU) [nM] | also measured
COc1cc(C(=O)c2cccc(-c3cc4ccccc4[nH]3)c2)cc(OC)c1OC [Compound 68, [3-(1H-Indol-2-yl)-phenyl]-(3,4,5-trimethoxy-phenyl)-methanone] | 15.1 to 39.2 | 50 | 28 | 18 ± 4.4 | (0.8) | (1.0) | 23.8 ± 1.7 | 42.7 | 13 ± 3.5 | 19 ± 1.5 | 28 ± 2 | 23 ± 4.1 | 18 ± 2.1 | IC50 (LNCaP [1]): 30.9 ± 3.5 nM; IC50 (PPC-1 [2]): 18.7 ± 1.5 nM; IC50 (DU-145 [3]): 22.8 ± 4.1 nM; IC50 (PC-3 [5]): 28.2 ± 2 nM; rotarod performance (Rotarod performance; 10 mg/kg i.p. q2d, 2 weeks, vs vehicle control): did not show impaired rotarod performance; also recorded: no loss of function; IC50 (MES-SA/DX5; Homo sapiens, MES-SA/DX5, P-gp over-expressed, 96 h): 32.3 ± 8.2 nM
O=C(c1cccc(-c2cc3ccccc3[nH]2)c1)c1cc2ccccc2[nH]1 [Compound 13, (1H-indol-2-yl)-[3-(1H-indol-2-yl)phenyl]methanone] |  |  |  |  |  |  |  |  | 442 ± 2.4 | 67.3 ± 1.1 | 81.1 ± 9.6 | 138 ± 12.6 | 33.8 ± 1.8 | DNA fragmentation (LNCaP and PC-3 cells): induced DNA fragmentation
CC[C@]1(O)C[C@@H]2CN(CCc3c([nH]c4ccccc34)[C@@](C(=O)OC)(c3cc4c(cc3OC)N(C)[C@H]3[C@@](O)(C(=O)OC)[C@H](OC(C)=O)[C@]5(CC)C=CCN6CC[C@]43[C@@H]65)C2)C1 [Vinblastine] | 1.1 to 6.3 | 5 | 1 | 268 ± 48 | (191) | (20) | 5 ± 1 | 8.1 |  |  |  |  |  | rotarod performance (Rotarod performance; 0.5 mg/kg i.p. q2d, day 4 to day 14): impaired performance; mean time on the rotating rod (Rotarod performance; 0.5 mg/kg i.p. q2d, end of 2 weeks (vehicle 151 s)): 121 s
